Results taken from US7335682B2, “Pharmaceutical compositions and methods for treating immune-response associated diseases of the surface and the anterior segment of the eye” (The Zhongshan Opthalmic Center, priority 2000, dated 2008).
Where two headings read alike, the source gives them in different places.

What was measured:
[1] = system: immune rejection of allotypic cornea transplantation; conditions: rat; for effect on immune rejection in allotypic cornea transplantation: superficial (ocular surface) administration
[2] = system: immunosuppression; conditions: in vitro; cited from earlier work
[3] = cited from earlier work
[4] = system: immune rejection in high risk cornea transplantation; assay: Clinical study of suppression of immune rejection in high risk cornea transplantation
From the text: Fifty-six high risk patients (56 eyes) who needed operation for cornea transplantation were randomly divided into a treatment group and a control group, each having […] patients. […] Average time for follow-up survey was 5½ months. The main criteria for clinical valuation include visual function, lasting time for transparency, new angiopoiesis, swelling, opaque degree of transplanted corneas after operation.
56 high risky patients (56 eyes) who need operation for cornea transplantation were chosen in this study with 32 eyes from male and 24 from female. The average age was 31 (19-66). Of which 27 eyes were carried for full cornea transplantation, 14 for full cornea transplantation with scleral ring, 10 eyes with angiopoiesis cornea were used for cornea transplantation, and 10 for multiple transplantations. Blindness was caused by pyogenic infection of eyes (30 eyes), severe chemical injury (18 eyes), and thermal burn (8 eyes).
The control medicine CsA was a product of Swiss Sandoz pharmaceuticals which was diluted to 1% eye drops with oleum ricini. Corticosteroid eye drops was also purchased commercially.
The above cases were randomly divided into treatment group and control group with each having 28 eyes. […] Medicines were given 3 days after surgery, continuing 3-9 months, follow-up survey was 5½ months.
Observation was done twice a week within 1-3 months after medication, then once a week after 3 months. The items for observation were vision and transplanted corneas (including three criteria: new angiopoiesis, swelling, opacity of transplanted corneas). The scores for each criterion are as follows: new angiopoiesis has grades 0-3, grade 0 indicates no new angiopoiesis (0 score), grade 1 a few new angiopoiesis focusing on transplanted corneas and starting penetration the edges of transplantation (1 score), grade 2 a few new angiopoiesis focusing on center of the transplanted corneas (2 scores), grade 3 a great numbers of new angiopoiesis fully covering the whole transplanted corneas (3 scores). The swelling contains grades 0-3, grade 0 means no swelling (0 score), grade 1 light swelling (1 score), grade 2 medium swelling (2 scores), grade 3 severe swelling (3 scores). […] Rejection index (RI) is a sum of the previous 3 criteria. When RI=5 scores it is considered rejection. The study would not cover the following conditions: epithelium had reaction of rejection, complication happened during operation, and swelling and dissolution of transplanted corneas occurred after operation due to a functional failure of implanted cornea endothelia, lesion fissure, secondary glaucoma, infection of transplantation.
All operations on patients in the study were done by professors in the Department of Corneal Diseases. Donor corneas were all freshly obtained from adults. Specific people were assigned for follow-up survey after surgery. t-test, u-test, and analysis of variance were carried out on the data using commercially available software.

[5] = system: immune-response related ocular surface diseases; assay: Further clinical observations with topical tacrolimus in immune ocular diseases; type: in vivo, patients

C[C@@H]1C[C@H]2[C@@H]3CCC4=CC(=O)C=C[C@]4(C)[C@@]3(F)[C@@H](O)C[C@]2(C)[C@@]1(O)C(=O)CO [corticosteroid, dexamethasone]
effect on inflammation in early phase ([1]; superficial administration): strong inhibition effect | inhibition of new angiopoiesis after cornea transplantation ([1]; superficial administration): strongest effect

C=CC[C@@H]1/C=C(\C)C[C@H](C)C[C@H](OC)[C@H]2O[C@@](O)(C(=O)C(=O)N3CCCC[C@H]3C(=O)O[C@H](/C(C)=C/[C@@H]3CC[C@@H](O)[C@H](OC)C3)[C@H](C)[C@@H](O)CC1=O)[C@H](C)C[C@@H]2OC.O [tacrolimus, Tacrolimus]
effect on immunosuppression relative to CsA [2]: 10-100 folds | terminal elimination half-life ([3]; healthy volunteers): 21.2 h | absorption half-life ([3]; oral dose, measured in 16 patients): 5.7 ± 4.6 h | terminal elimination half-life ([3]; transplant patients): 11.7 ± 3.9 h | final rate of rejection to the transplantation ([4]; 28 eyes per group, RI=5 counted as rejection, follow-up 5½ months): 60.8% | maintenance time for transparency in transplanted corneas after surgery ([4]; 28 eyes per group, eye drops four times a day with TOBRA DEX): 70.4 ± 18.32 days | eyes with final vision (=0.05 for FK-506, =0.5 for CsA as printed) ([4]; 28 eyes per group, with TOBRA DEX, follow-up 5½ months): 39.3% | new angiopoiesis, swelling, opaqueness and RI values of cornea transplantation ([4]; during follow-up survey): much better than the CsA group | adverse reactions (twinges, itches, toxic reactions on cornea epithelia) ([4]; topical eye drops, patients): No patient showed adverse reactions | effect on immune rejection in allotypic cornea transplantation [1]: clear inhibition | effect on immune rejection in allotypic cornea transplantation ([1]; listed as Tecolimus): clearly therapeutic effects | effect on swelling of transplanted corneas in early phase ([1]; superficial administration): worse therapeutic effects | conjunctive inflammation non-responsive to CsA treatment ([5]; 17 cases, topical administration): successfully controlled | recurrence of recurring erosive corneal ulcer ([5]; 26 cases, five months to two years, topical): only three cases had recurrence | rejection reaction in cornea transplantation ([5]; 64 cases, most of them, topical): significantly reduced rejection reaction | effect on Type I and IV hypersensitive reactions ([5]; topical administration): significant therapeutic effects | effect on Types II and III hypersensitive reactions (e.g. Steven Johnson Syndrome) ([5]; topical administration): some, but not complete therapeutic effect | effect on re-construction of ocular surface and obstinate and immune corneal diseases ([5]; topical administration): excellent clinical effects
